Data set [1] has as its system Swiss-Webster male mice. Put plainly: Mouse Activity and Screen Test (MAST): inhibition of spontaneous locomotion (LI). The data set is classed as in vivo. The settings on record: for minimal effective dose: Mus musculus, ip, read-out: MAST LI LAD; for Inhibition of mouse locomotor activity: one hour prior to testing, vs vehicle. The protocol: (§1) Treatments are administered intraperitoneally one hour prior to testing. […] Compounds are dissolved or suspended in 0.2% Methocel. Control animals are injected with Methocel.
Immediately following the screen test, the final phase of testing is initiated by placing each group of three mice in one actophotometer (Life Sciences, 22, 1067-1076, 1978). The actophotometer consists of a cylindrical chamber whose center is occupied by another cylinder which contains the illumination for six photocells located on the perimeter of the chamber. Six light-beam interruptions equal one count. Locomotor activity is recorded by computer at ten minute intervals for 60 minutes. […]

The subject of the next data set is conscious rat. Briefly: Antihypertensive evaluation (AHP3): aortic blood pressure and heart rate. Conditions: conscious rat; for minimal effective dose: lowest dose tested at which a >10% reduction in blood pressure for four consecutive hours is achieved, read-out: AHP3 BP LAD. The class given is in vivo. An excerpt: […] EVALUATION (AHP3)
This test procedure is described in the following paragraphs.
A Method for the Direct Monitoring of Aortic Blood Pressure and Heart Rate from Conscious Rats
The continuous monitoring of pulsatile blood pressure (BP) from unrestrained conscious rats surgically equipped with polyethylene cannulas was accomplished by means of a computer assisted data capture scheme (CADCS). The absic elements of the methodology are the cannulation procedure and the CADCS.
Cannulation Procedure: Rats were anesthetized with Telazol (1:1 tiletamine HCI and zolazepam HCI); 20-40 mg/kg IM and the descending aorta exposed via a midline incision. Cannulas fabricated from polyethylene tubing were inserted into the aorta via an undersized puncture hole below the renal arteries. The puncture hole was made by a 23 G disposable needle with a section of the aorta clamped off above and below the puncture site. The cannulas, consisting of a PE100 (0.86 mm ID) body and a PE50 (0.58 mm ID) tip, were attached to a trocar, inserted through the psoas muscle, and passed subcutaneously along the midline of the back and externalized between the ears. The cannulas were anchored to the psoas muscle and between the scalulae (3-0 green braided suture). The midline incision was closed in two steps (muscle first, skin second) using continuous over-and over sutures (4-0 chronic). Each rat was then given penicillin 30,000 units subcutaneously (Penicillin G Procaine Sterile Suspension).
The rats were fitted with a harness-spring-swivel assembly designed to protect the cannula and to provide the rat relative freedom of movement. The harnesses were fabricated from nylon hook and loop tape cemented to a metal plate to which spring wires (18-8 stainless steel), were attached to brass swivels. Each polyethylene cannula was channeled through a spring and connected through a swivel to a pressure transducer (Model P23Gb; Statham Instruments; Hato Rey, Puerto Rico) and an infusion pump (Sage model 234-7; Orion Research, Cambridge, Ma) by means of PE100 tubing. While on test, each rat received a continuous slow infusion of heparinized saline solution (approximately 400 I or 40 units of heparin per 24 hour period) to prevent clot formation. Additional "flushes" of the cannula with heparinized saline were carried out when the aortic pulse pressure (systolic minus diastolic) was less than 25 mm Hg.
CADCS: The pulsatile blood pressure and heart rate of each of 32 rats was monitored every minute by means of two in-laboratory microcomputers communicating directly with a data concentrator computer. The data were first stored on the data concentrator disk and then transferred to a magnetic tape for analysis and report generation by the main research computer. The overall scheme involved modulating the primary signal from the pressure transducer, generating the primary data set of the one-minute values for systolic, diastolic, and mean blood pressures and heart rate by the in-lab microcomputer and the storage, analysis, and report generation by the main research computer.
The transducers were connected to analog signal conditioning modules. The modules providing a regulated excitation voltage for the transducers, amplification as required to interface the microprocessors and an active low pass filter to compensate for the pressure wave form distortion produced by the flexible, fluid filled, narrow cannula.
The microcomputers (one for each of two groups of 16 rats) were connected to the input components through the module interface units, an analog-to-digital converter for the pressure wave form signal and the digital inputs for the dose and event marker switches. The microcomputer controlled the sequential acquisition of data from the modular interface units through an internal synchronous time-of-day clock/ time base generator. […]

Data set [2] deals with Long-Evans rats or squirrel-monkeys. Briefly: Antipsychotic lever-push shock avoidance protocol (SIDR). The data set is classed as in vivo. The settings on record: Rattus norvegicus; shock avoidance lever pushing; read-out: SIDR ED50. The protocol: Representative compounds of the invention (identified in the Examples) were also tested for antipsychotic activity according to the following protocol (SIDR). […] Mature male Long-Evans rats or squirrel-monkeys are conditioned to push a lever in order to avoid a painful electric footshock. If the animal fails to push the lever, he receives a shock every ten seconds until the lever is pushed. Shocks can be terminated by pushing the lever. Thereafter, as long as the lever is pushed at least once every 20 seconds, there will be no shock. Each animal acts as its own control; one weekly session is used to establish baseline behavior and another session later in the week is used as a drug session. Once patterns of avoidance are established, the effects of standard and unknown compounds are studied. All events are electronically programmed and the response to these events counted or used as feedback to the program.

Data set [3] relates to Swiss-Webster male mice. Put plainly: Mouse Activity and Screen Test (MAST): screen test (ST). The data set is classed as in vivo. Conditions: for MAST ST LAD: lowest dose at which an A rating (60-100%) is achieved, screen test, intraperitoneally; for Inhibition of screen test failure: percent of mice falling off the screen. The protocol: as §1
The compounds are identified in the Examples.

A further data set relates to rat heart. Put plainly: Coronary blood flow (PCS2A): isolated perfused heart. The settings on record: isolated perfused rat heart. The protocol: CORONARY BLOOD FLOW (PCS2A)
Male rats (400-600 gms) are pretreated with Na haparin 2000 units and anesthetized with Na pentobarbital (50 mg/kg) administered intraperitoneally. Once anesthetized, the rat heart is rapidly excised, the ascending aorta fitted to the aortic perfusion cannula, and […] with a ligature. The coronary arteries are perfused initially at a rate of about 15 ml/min for two to three minutes, afterwhich they are perfused at constant pressure of 70 mm Hg and temperature of 37°C. The electrocardiogram (ECG) is recorded using two platinum electrodes positioned at the base and apex of the left ventricle. A second heart is excised, cannulated, and perfused by the same method outlined above. Both hearts are tested in parallel. The standard physiological salt solution (PSS) is a modified Krebs-Hanseleit bicarbonate buffer of the following composition in mM concentration: NaCI, 127; NaHC03, 25; dextrose, 5.5; Na Pyruvate, 2.0: KCI, 4.7; MgS04, 1.1; KH 2P04, 1.2; CaCl2·2H2O, 2.5; CaNa2 EDTA, 0.05.
A 30-minute stabilization period is observed before starting the test protocol.
The microprocessor control system is a servo mechanism which permits coronary perfusion pressure (CPP) and drug concentration to be maintained constant independent of changes in coronary flow. The level at which CPP and drug concentration are maintained can be changed by commands communicated through the microprocessor keyboard. Dose-response curves are carried out by perfusing concentrated drug solution (DC) at rates proportional to total coronary flow (CFT). Drug concentrations are increased by proportionate increases in the rate of DC infusion over CFT via the microprocessor keyboard. The proportional flow rates for DC:CFT is about .0002:1 at the low end and .02: at the high end of the dose-response curve. Dose-response curves encompassing at least two log doses are carried out by preparing two DCs with a concentration difference of 1:100. Following the first dose range of two log doses, the DC are switched, proportional pumping rate adjusted, and the dose-response curve continued for another two log doses. The standard dose-response curve is carried out in one-half log dose increments starting at a subthreshold dose and ending at a dose which produces near maximal response in activity. Standard reference compounds are tested over the range of 10-^9 to 10-^6M.
Measurements are for heart rate (HR) and coronary flow (CF). Units are: HR, beats/minute (bpm) and CF, milliliters/minute (ml/min). HR is calculated from the ECG strip chart recording and CF is calculated by recording analog outputs from pumps 1 and 2. Outputs from pump #1 = CFT and the output from pump #2 = CF for heart B (CFg). CF for heart A (CFA) is calculated (CFT - CFB = CFA).
Using the above technique, the effects of the compound of Examples 1 and 2 are as follows: […]

A further data set deals with male Swiss-Webster mice. Briefly: Analgesic evaluation: antiwrithing (AW) test, acetic acid. The data set is classed as in vivo. The settings on record: Mus musculus, sc; subcutaneously, 20 minutes before acetic acid; dose to suppress writhing by 50%; read-out: AW ED50. The protocol: The antiwrithing (AW) test provides preliminary assessment of compounds with potential analgesic activity. The test is performed in male Swiss-Webster mice. Compounds are administered subcutaneously in aqueous 0.2% methylcellulose or other appropriate vehicles in volumes of 10 ml/kg. Dosages represent activity moiety.
Acetic acid (0.6%, 10 ml/kg) is injected intraperitroneally 20 minutes after administration of the adenosine agonist. Writhing movements are counted for five minutes starting seven minutes after the acetic acid injection. Writhing is defined as abdominal constriction and stretching of the body and hind legs with concave arching of the back. […] EDso values are calculated by nonlinear regression analysis.
(An intraperitoneal irritant provokes the stretching counted in writhing tests.)

[4] abbreviates: coronary flow, read-out: PCS2A CF ED50.
Where [5] appears, read: heart rate, read-out: PCS2A HR ED50.

Where two headings read alike, the source gives them in different places. Bounds are passed on as bounds.

The results in this text go back to patent publication EP0139358B1, “N6-substituted diarylalkyl adenosines, processes for their production and pharmaceutical compositions comprising the same” (priority 1983, dated 1985).

`OC[C@H]1O[C@@H](n2cnc3c(NCC(c4ccccc4)c4ccc(Cl)cc4)ncnc32)[C@H](O)[C@@H]1O` (stereo partly drawn) [Example 15, N^6-(2-(4-Chlorophenyl)-2-phenylethyl)adenosine]: the minimal effective dose in the data set on Swiss-Webster male mice [1] and in the data set on conscious rat was 10 mg/kg throughout. Also, in data set [2], the ED50 was 12.7 mg/kg. In addition, in the data set on Swiss-Webster male mice [3], the “MAST ST LAD” value was more than 100 mg/kg. Also, the EC50 is 0.03 µM in the data set on rat heart (setting [4]) and more than 3 µM in the data set on rat heart (setting [5]).
In the case of `OC[C@H]1O[C@@H](n2cnc3c(NCC(c4ccccc4)c4ccccc4)nc(Cl)nc32)[C@H](O)[C@@H]1O` [Example 3, N^6-(2,2-Dipenylethyl)-2-chloroadenosine], the “Inhibition of mouse locomotor activity” value amounted to 56% with Swiss-Webster male mice [1] (10 mg/kg intraperitoneally), 85% in the data set with Swiss-Webster male mice [1] (30 mg/kg intraperitoneally) and 92% in the data set on Swiss-Webster male mice [1] (100 mg/kg intraperitoneally). The minimal effective dose with Swiss-Webster male mice [1] and in the data set with conscious rat was 10 mg/kg in each case. Also, in the data set with conscious rat (10 mg/kg, decrease in mean arterial blood pressure), the “Mμ.c. ↓” value is listed as 15%. Also, in the data set on conscious rat (10 mg/kg, heart rate increase), the “HR ↑” value was less than 20%. Further, the ED50 in data set [2] turned out to be 9.6 mg/kg. Besides, the entries for the “Inhibition of screen test failure” value in the data set with Swiss-Webster male mice [3] (10 mg/kg intraperitoneally), in the data set on Swiss-Webster male mice [3] (30 mg/kg intraperitoneally) and with Swiss-Webster male mice [3] (100 mg/kg intraperitoneally) were 0%, 11% and 44%, respectively. The “MAST ST LAD” value with Swiss-Webster male mice [3] is given as more than 100 mg/kg. The figures for the EC50 with rat heart (setting [4]) and in the data set with rat heart (setting [5]) were 30 µM and more than 30 µM, respectively.
Consider `OC[C@H]1O[C@@H](n2cnc3c(NC(c4ccccc4)c4ccccc4)ncnc32)[C@H](O)[C@@H]1O` [Example 5, N^6-Diphenylmethyladenosine, reference compound], for which the minimal effective dose is 100 mg/kg in the data set on Swiss-Webster male mice [1] and more than 10 mg/kg in the data set on conscious rat. Moreover, in data set [2], the ED50 was more than 50 mg/kg. In addition, in the data set with Swiss-Webster male mice [3], the “MAST ST LAD” value is on record as more than 100 mg/kg. The EC50 with rat heart (setting [4]) and with rat heart (setting [5]) was more than 3 µM in each case.
As for `CC(=O)OC[C@H]1O[C@@H](n2cnc3c(NCC(c4ccccc4)c4ccccc4)ncnc32)[C@H](OC(C)=O)[C@@H]1OC(C)=O` [Example 25, 2',3',5'-Tri-O-acetyl-N^6-(2,2-diphenylethyl)adenosine], the values for the minimal effective dose with Swiss-Webster male mice [1] and in the data set with conscious rat were 3 mg/kg and 10 mg/kg, respectively. In addition, in data set [2], the ED50 stood at 11.3 mg/kg. The “MAST ST LAD” value in the data set on Swiss-Webster male mice [3] was more than 100 mg/kg. For the same compound, the values for the EC50 with rat heart (setting [4]) and in the data set with rat heart (setting [5]) were 1 µM and 2.2 µM, respectively.
For the compound `CC(CNc1ncnc2c1ncn2[C@@H]1O[C@H](CO)[C@@H](O)[C@H]1O)(c1ccccc1)c1ccccc1` [Example 8, N^6-(2,2-Diphenylpropyl)adenosine], the ED50 came to 10.6 mg/kg in the data set with male Swiss-Webster mice and 5.6 mg/kg in data set [2]. In addition, the minimal effective dose in the data set with Swiss-Webster male mice [1] and in the data set on conscious rat was 10 mg/kg throughout. Further, the “MAST ST LAD” value in the data set with Swiss-Webster male mice [3] is listed as more than 100 mg/kg. For the same compound, the EC50 was less than 0.1 µM in the data set with rat heart (setting [4]) and 3 µM with rat heart (setting [5]).

By ED50 is commonly meant the midpoint of the dose-response relation.
